Experiments:
[1] = system: Hep G2 tumor; experiment: Tumor retention after intra-tumoral injection in hepatocellular carcinoma mouse model; format: in vivo, mice; details: n=3
Description: ^111In-DOTA-tetradecylamine(TDA) was synthesized with a radiolabeling yield >95%. The retention of ^111In-DOTA-TDA within a hepatocellular carcinoma mouse model was evaluated; Hep G2 tumor-bearing SCID mice (24 hours, n=3) and NCG mice (48 hours, n=3) following intra-tumoral injections of ^111In-DOTA-TDA alone or as a Lipiodol emulsion (FIG. 6).

[2] = Octanol partition coefficient
From the text: Partition coefficients will be as previously described with some minor modifications. Decristoforo, C., et al., 2008. Octanol and saline (pH=7.4) will be used to assess the […] of the proposed compounds. Briefly, the radiolabeled ^111In- and ^225Ac-labeled DOTA(GA)-alkyl chelates will be vortexed with octanol and saline then centrifuged to separate layers. Aliquots (3) from each layer will be removed and counted. The […] will be determined using the following equations:
Poct/saline=Log([activity]octanol/[activity]saline).
A greater than 95% purity was obtained following purification with a Seppak.

[3] = system: castration resistant prostate cancer; details: castration resistant prostate cancer patients; cited from earlier work
[4] = system: bladder cancer; details: survive >300 d following treatment; cited from earlier work

With “^111In-DOTA-tetradecylamine [^111In-DOTA-TDA]” the “uptake within the tumor” value ([1]; 24 hours, Hep G2 tumor-bearing SCID mice) was 103±65.0 % ID/g, the “uptake within the tumor” value ([1]; 48 hours, Hep G2 tumor-bearing NCG mice) was 20.0±15.9 % ID/g and the “Log Poct” value [2] was 1.57±0.005.

In the case of `[Cl][223Ra][Cl]` [XOFIGO®, Radium-223 Dichloride], the increased survival benefit [3] is given as 2.8 month.

In the case of `CO[C@@]12[C@H](COC(N)=O)C3=C(C(=O)C(C)=C(N)C3=O)N1C[C@@H]1N[C@@H]12` [mitomycin C], the survival of mice [4] is listed as 40%.

From patent US20210236664A1, “ALPHA PARTICLE FORMULATIONS FOR TREATMENT OF SOLID TUMORS” (The Johns Hopkins University, priority 2018, published 2021)
